US20100166772A1, “ANTIGEN-BINDING PROTEINS TARGETING S. AUREUS ORF0657n” (priority 2007, published 2010)
“And” between values parts separate entries of the source, which are not always exact repeats. Identical values can stand only once.

Test system: S. aureus Becker
Experiment: Combination treatment vancomycin and mAb in cannulated rats, catheter bacteria load
Assay type: in vivo
Conditions: for Catheter CFU Exp#1 / Catheter CFU Exp#2: 24 hours
Method: Cannulated rats were given vancomycin (20 mpk) sub. cu. at 1 hour (1 H) prior to iv challenge with 2−4×10^9 CFU of S. aureus Becker. At 1 H post challenge, the rats were injected with 6 mg/rat of either the mAb CS-D6, an isotype control mAb 20C2HA, or PBS. At 24 hours post challenge, the animals were sacrificed, the jugular vein catheters harvested and evaluated for the bacteria load on the catheter. Evaluation of catheters was performed by placement in selective broth medium, and outgrowth on the Piccolo incubation system. Outgrowth was compared to standard curves of S. aureus growth under the same conditions to calculate the number of CFU on the experimental catheters. In the first set of experiments (Table 15), small numbers of animals were used to test the system. In the second set of experiments (Table 16), larger numbers of rats were used. […] This model was designed to simulate a clinical situation in which a patient is undergoing surgery or other invasive procedure, and getting an empiric or prophylactic antibiotic. In the model, the mAb was injected after bacteria exposure, simulating adjunctive mAb treatment for infection during surgery.

[1] = Table 15, individual rats, vancomycin 20 mpk sub. cu. 1 H prior, 6 mg/rat mAb 1 H post challenge
[2] = Table 16, individual rats, larger numbers of rats, vancomycin 20 mpk, 6 mg/rat mAb

## CN[C@H](CC(C)C)C(=O)N[C@H]1C(=O)N[C@@H](CC(N)=O)C(=O)N[C@H]2C(=O)N[C@H]3C(=O)N[C@H](C(=O)N[C@H](C(=O)O)c4cc(O)cc(O)c4-c4cc3ccc4O)[C@H](O)c3ccc(c(Cl)c3)Oc3cc2cc(c3O[C@@H]2O[C@H](CO)[C@@H](O)[C@H](O)[C@H]2O[C@H]2C[C@](C)(N)[C@H](O)[C@H](C)O2)Oc2ccc(cc2Cl)[C@H]1O [Vancomycin + PBS, vancomycin]
[1]
  Catheter CFU Exp#1: 0 CFU and 38,725,264 CFU
  Catheter CFU Exp#2: 0 CFU (3×) and 217 CFU
[2]
  Catheter CFU Exp#1: 64 CFU and 309 CFU and 973 CFU and 5,015 CFU and 5,108 CFU and 7,353,005 CFU
  Catheter CFU Exp#2: 0 CFU and 63 CFU (2×) and 291 CFU and 6,517,926 CFU and 7,829,527 CFU
Table 16, catheters with no outgrowth assigned value of 10
  Catheter CFU Geo mean: 3,368 CFU
In vivo
  Catheter CFU Geo mean: 45 CFU
